Values after ≈ are worked out from the molar mass of the structure shown.
System: L1210
Assay: Cytotoxicity against mouse L1210 cells after 72 hrs
Assay type: functional, cell-based
Conditions: L1210, 72 h

With `CCCCCCCCC[C@H]1NC(N)=N[C@@]2(CCCO2)[C@H]1C(=O)OCCCCCCCNC(=N)N` [CRAMBESCIN B] the IC50 was 1 µg/mL (≈ 2.08 µM).
